Laboratory results reported in US20140120232A1, “ACID TASTE/ACID SMELL-REDUCING AGENT” (T. HASEGAWA CO., LTD., priority 2011, published 2014).

Assay: Sensory evaluation of Vermont drink containing the agent
Details: ten panels
Experimental: Water was added to a mixture of 10 g of apple-cider vinegar (acetic acid: 4.8%), 3 g of honey, 7 g of fructose-glucose liquid sugar mixed with sugar, 0.02 g of citric acid, 0.002 g of trisodium citrate, and 0.1 g of a Vermont flavor (manufactured by T. Hasegawa Co., Ltd.) to give a total amount of 100 mL. To the resulting mixture was added (Z,Z)-4,7-tridecadienal as the acid taste and/or acid smell-reducing agent of the present invention in concentrations shown in the following Table 1 to give Vermont drinks containing the agent.
Sensory evaluation of each drink was carried out by ten panels. […] The piercing aroma characteristic to aldehydes is a characteristic aroma common to every aldehyde and refers to an irritant off-smell giving an image of deteriorated oils and fats, soap, metals, Houttuynia cordata, etc. The judgment of smell was performed by comparing the effects at different concentrations of the acid taste and/or acid smell-reducing agent, and a concentration giving the highest acid taste/acid smell quality was selected. […]

## CCCCC/C=C\C/C=C/C=C/C=O [(E,E,Z)-2,4,7-tridecatrienal]
0.005 ppt
  A: number of panels, acid taste/acid smell extreme and cause irritation: 10
  B: number of panels, acid taste/acid smell slightly strong and slightly cause irritation: 0
  C: number of panels, acid taste/acid smell slightly unpleasant: 0
  Flavor judgment: number of panels who judged acid taste/acid smell quality the highest: 0
  N: number of panels, irritation of acid reduced to give a mild acid taste: 0
  X: number of panels, acid taste reduced but piercing odor characteristic to aldehydes unpleasant: 0
0.02 ppt
  A: number of panels, acid taste/acid smell extreme and cause irritation: 10
  B: number of panels, acid taste/acid smell slightly strong and slightly cause irritation: 0
  C: number of panels, acid taste/acid smell slightly unpleasant: 0
  Flavor judgment: number of panels who judged acid taste/acid smell quality the highest: 0
  N: number of panels, irritation of acid reduced to give a mild acid taste: 0
  X: number of panels, acid taste reduced but piercing odor characteristic to aldehydes unpleasant: 0
0.1 ppt
  A: number of panels, acid taste/acid smell extreme and cause irritation: 10
  B: number of panels, acid taste/acid smell slightly strong and slightly cause irritation: 0
  C: number of panels, acid taste/acid smell slightly unpleasant: 0
  Flavor judgment: number of panels who judged acid taste/acid smell quality the highest: 0
  N: number of panels, irritation of acid reduced to give a mild acid taste: 0
  X: number of panels, acid taste reduced but piercing odor characteristic to aldehydes unpleasant: 0
0.2 ppt
  A: number of panels, acid taste/acid smell extreme and cause irritation: 8
  B: number of panels, acid taste/acid smell slightly strong and slightly cause irritation: 2
  C: number of panels, acid taste/acid smell slightly unpleasant: 0
  Flavor judgment: number of panels who judged acid taste/acid smell quality the highest: 0
  N: number of panels, irritation of acid reduced to give a mild acid taste: 0
  X: number of panels, acid taste reduced but piercing odor characteristic to aldehydes unpleasant: 0
0.5 ppt
  A: number of panels, acid taste/acid smell extreme and cause irritation: 7
  B: number of panels, acid taste/acid smell slightly strong and slightly cause irritation: 2
  C: number of panels, acid taste/acid smell slightly unpleasant: 1
  Flavor judgment: number of panels who judged acid taste/acid smell quality the highest: 0
  N: number of panels, irritation of acid reduced to give a mild acid taste: 0
  X: number of panels, acid taste reduced but piercing odor characteristic to aldehydes unpleasant: 0
1 ppb
  A: number of panels, acid taste/acid smell extreme and cause irritation: 0
  B: number of panels, acid taste/acid smell slightly strong and slightly cause irritation: 0
  C: number of panels, acid taste/acid smell slightly unpleasant: 3
  Flavor judgment: number of panels who judged acid taste/acid smell quality the highest: 0
  N: number of panels, irritation of acid reduced to give a mild acid taste: 4
  X: number of panels, acid taste reduced but piercing odor characteristic to aldehydes unpleasant: 3
1 ppt
  A: number of panels, acid taste/acid smell extreme and cause irritation: 0
  B: number of panels, acid taste/acid smell slightly strong and slightly cause irritation: 5
  C: number of panels, acid taste/acid smell slightly unpleasant: 4
  Flavor judgment: number of panels who judged acid taste/acid smell quality the highest: 0
  N: number of panels, irritation of acid reduced to give a mild acid taste: 1
  X: number of panels, acid taste reduced but piercing odor characteristic to aldehydes unpleasant: 0
5 ppt
  A: number of panels, acid taste/acid smell extreme and cause irritation: 0
  B: number of panels, acid taste/acid smell slightly strong and slightly cause irritation: 2
  C: number of panels, acid taste/acid smell slightly unpleasant: 3
  Flavor judgment: number of panels who judged acid taste/acid smell quality the highest: 3
  N: number of panels, irritation of acid reduced to give a mild acid taste: 5
  X: number of panels, acid taste reduced but piercing odor characteristic to aldehydes unpleasant: 0
10 ppb
  A: number of panels, acid taste/acid smell extreme and cause irritation: 0
  B: number of panels, acid taste/acid smell slightly strong and slightly cause irritation: 0
  C: number of panels, acid taste/acid smell slightly unpleasant: 2
  Flavor judgment: number of panels who judged acid taste/acid smell quality the highest: 0
  N: number of panels, irritation of acid reduced to give a mild acid taste: 2
  X: number of panels, acid taste reduced but piercing odor characteristic to aldehydes unpleasant: 6
20 ppt
  A: number of panels, acid taste/acid smell extreme and cause irritation: 0
  B: number of panels, acid taste/acid smell slightly strong and slightly cause irritation: 0
  C: number of panels, acid taste/acid smell slightly unpleasant: 4
  Flavor judgment: number of panels who judged acid taste/acid smell quality the highest: 4
  N: number of panels, irritation of acid reduced to give a mild acid taste: 6
  X: number of panels, acid taste reduced but piercing odor characteristic to aldehydes unpleasant: 0
50 ppb
  A: number of panels, acid taste/acid smell extreme and cause irritation: 0
  B: number of panels, acid taste/acid smell slightly strong and slightly cause irritation: 0
  C: number of panels, acid taste/acid smell slightly unpleasant: 0
  Flavor judgment: number of panels who judged acid taste/acid smell quality the highest: 0
  N: number of panels, irritation of acid reduced to give a mild acid taste: 2
  X: number of panels, acid taste reduced but piercing odor characteristic to aldehydes unpleasant: 8
100 ppt
  A: number of panels, acid taste/acid smell extreme and cause irritation: 0
  B: number of panels, acid taste/acid smell slightly strong and slightly cause irritation: 0
  C: number of panels, acid taste/acid smell slightly unpleasant: 3
  Flavor judgment: number of panels who judged acid taste/acid smell quality the highest: 3
  N: number of panels, irritation of acid reduced to give a mild acid taste: 7
  X: number of panels, acid taste reduced but piercing odor characteristic to aldehydes unpleasant: 0
500 ppt
  A: number of panels, acid taste/acid smell extreme and cause irritation: 0
  B: number of panels, acid taste/acid smell slightly strong and slightly cause irritation: 0
  C: number of panels, acid taste/acid smell slightly unpleasant: 4
  Flavor judgment: number of panels who judged acid taste/acid smell quality the highest: 0
  N: number of panels, irritation of acid reduced to give a mild acid taste: 4
  X: number of panels, acid taste reduced but piercing odor characteristic to aldehydes unpleasant: 2

## CCCCC/C=C/C/C=C\C=C\C=O [(E,Z,E)-2,4,7-tridecatrienal]
0.005 ppt
  A: number of panels, acid taste/acid smell extreme and cause irritation: 10
  B: number of panels, acid taste/acid smell slightly strong and slightly cause irritation: 0
  C: number of panels, acid taste/acid smell slightly unpleasant: 0
  Flavor judgment: number of panels who judged acid taste/acid smell quality the highest: 0
  N: number of panels, irritation of acid reduced to give a mild acid taste: 0
  X: number of panels, acid taste reduced but piercing odor characteristic to aldehydes unpleasant: 0
0.02 ppt
  A: number of panels, acid taste/acid smell extreme and cause irritation: 10
  B: number of panels, acid taste/acid smell slightly strong and slightly cause irritation: 0
  C: number of panels, acid taste/acid smell slightly unpleasant: 0
  Flavor judgment: number of panels who judged acid taste/acid smell quality the highest: 0
  N: number of panels, irritation of acid reduced to give a mild acid taste: 0
  X: number of panels, acid taste reduced but piercing odor characteristic to aldehydes unpleasant: 0
0.1 ppt
  A: number of panels, acid taste/acid smell extreme and cause irritation: 10
  B: number of panels, acid taste/acid smell slightly strong and slightly cause irritation: 0
  C: number of panels, acid taste/acid smell slightly unpleasant: 0
  Flavor judgment: number of panels who judged acid taste/acid smell quality the highest: 0
  N: number of panels, irritation of acid reduced to give a mild acid taste: 0
  X: number of panels, acid taste reduced but piercing odor characteristic to aldehydes unpleasant: 0
0.2 ppt
  A: number of panels, acid taste/acid smell extreme and cause irritation: 8
  B: number of panels, acid taste/acid smell slightly strong and slightly cause irritation: 2
  C: number of panels, acid taste/acid smell slightly unpleasant: 0
  Flavor judgment: number of panels who judged acid taste/acid smell quality the highest: 0
  N: number of panels, irritation of acid reduced to give a mild acid taste: 0
  X: number of panels, acid taste reduced but piercing odor characteristic to aldehydes unpleasant: 0
0.5 ppt
  A: number of panels, acid taste/acid smell extreme and cause irritation: 6
  B: number of panels, acid taste/acid smell slightly strong and slightly cause irritation: 2
  C: number of panels, acid taste/acid smell slightly unpleasant: 2
  Flavor judgment: number of panels who judged acid taste/acid smell quality the highest: 0
  N: number of panels, irritation of acid reduced to give a mild acid taste: 0
  X: number of panels, acid taste reduced but piercing odor characteristic to aldehydes unpleasant: 0
1 ppb
  A: number of panels, acid taste/acid smell extreme and cause irritation: 0
  B: number of panels, acid taste/acid smell slightly strong and slightly cause irritation: 0
  C: number of panels, acid taste/acid smell slightly unpleasant: 2
  Flavor judgment: number of panels who judged acid taste/acid smell quality the highest: 0
  N: number of panels, irritation of acid reduced to give a mild acid taste: 4
  X: number of panels, acid taste reduced but piercing odor characteristic to aldehydes unpleasant: 4
1 ppt
  A: number of panels, acid taste/acid smell extreme and cause irritation: 0
  B: number of panels, acid taste/acid smell slightly strong and slightly cause irritation: 6
  C: number of panels, acid taste/acid smell slightly unpleasant: 3
  Flavor judgment: number of panels who judged acid taste/acid smell quality the highest: 0
  N: number of panels, irritation of acid reduced to give a mild acid taste: 1
  X: number of panels, acid taste reduced but piercing odor characteristic to aldehydes unpleasant: 0
5 ppt
  A: number of panels, acid taste/acid smell extreme and cause irritation: 0
  B: number of panels, acid taste/acid smell slightly strong and slightly cause irritation: 1
  C: number of panels, acid taste/acid smell slightly unpleasant: 3
  Flavor judgment: number of panels who judged acid taste/acid smell quality the highest: 4
  N: number of panels, irritation of acid reduced to give a mild acid taste: 6
  X: number of panels, acid taste reduced but piercing odor characteristic to aldehydes unpleasant: 0
10 ppb
  A: number of panels, acid taste/acid smell extreme and cause irritation: 0
  B: number of panels, acid taste/acid smell slightly strong and slightly cause irritation: 0
  C: number of panels, acid taste/acid smell slightly unpleasant: 1
  Flavor judgment: number of panels who judged acid taste/acid smell quality the highest: 0
  N: number of panels, irritation of acid reduced to give a mild acid taste: 2
  X: number of panels, acid taste reduced but piercing odor characteristic to aldehydes unpleasant: 7
20 ppt
  A: number of panels, acid taste/acid smell extreme and cause irritation: 0
  B: number of panels, acid taste/acid smell slightly strong and slightly cause irritation: 0
  C: number of panels, acid taste/acid smell slightly unpleasant: 3
  Flavor judgment: number of panels who judged acid taste/acid smell quality the highest: 4
  N: number of panels, irritation of acid reduced to give a mild acid taste: 7
  X: number of panels, acid taste reduced but piercing odor characteristic to aldehydes unpleasant: 0
50 ppb
  A: number of panels, acid taste/acid smell extreme and cause irritation: 0
  B: number of panels, acid taste/acid smell slightly strong and slightly cause irritation: 0
  C: number of panels, acid taste/acid smell slightly unpleasant: 0
  Flavor judgment: number of panels who judged acid taste/acid smell quality the highest: 0
  N: number of panels, irritation of acid reduced to give a mild acid taste: 2
  X: number of panels, acid taste reduced but piercing odor characteristic to aldehydes unpleasant: 8
100 ppt
  A: number of panels, acid taste/acid smell extreme and cause irritation: 0
  B: number of panels, acid taste/acid smell slightly strong and slightly cause irritation: 0
  C: number of panels, acid taste/acid smell slightly unpleasant: 2
  Flavor judgment: number of panels who judged acid taste/acid smell quality the highest: 2
  N: number of panels, irritation of acid reduced to give a mild acid taste: 8
  X: number of panels, acid taste reduced but piercing odor characteristic to aldehydes unpleasant: 0
500 ppt
  A: number of panels, acid taste/acid smell extreme and cause irritation: 0
  B: number of panels, acid taste/acid smell slightly strong and slightly cause irritation: 0
  C: number of panels, acid taste/acid smell slightly unpleasant: 3
  Flavor judgment: number of panels who judged acid taste/acid smell quality the highest: 0
  N: number of panels, irritation of acid reduced to give a mild acid taste: 4
  X: number of panels, acid taste reduced but piercing odor characteristic to aldehydes unpleasant: 3
